Measured values as given in patent US12209087B2, “AKT1 modulators” (Alterome Therapeutics, Inc., priority 2022, dated 2025).
pIC50: −log10 of the molar value.

Molecular target: T1, full length AKT E17K (Homo sapiens, UniProt P31749, E17K)
T1 construct: host or cells: HEK-293 (ATCC CRL-1573)
Assay: NanoBRET Target Engagement (TE) Assay
Format: cell-based
Conditions: competitive displacement of tracer in cells, read-out: AKT1 E17K IC50
Outline: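 Compound and tracer incubated 2 h before luminescence at donor 450 nm and acceptor 600 nm, with extracellular signal inhibited. EC50 by sigmoidal variable-slope regression.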

T1 sequence (P31749 whole entry E17K): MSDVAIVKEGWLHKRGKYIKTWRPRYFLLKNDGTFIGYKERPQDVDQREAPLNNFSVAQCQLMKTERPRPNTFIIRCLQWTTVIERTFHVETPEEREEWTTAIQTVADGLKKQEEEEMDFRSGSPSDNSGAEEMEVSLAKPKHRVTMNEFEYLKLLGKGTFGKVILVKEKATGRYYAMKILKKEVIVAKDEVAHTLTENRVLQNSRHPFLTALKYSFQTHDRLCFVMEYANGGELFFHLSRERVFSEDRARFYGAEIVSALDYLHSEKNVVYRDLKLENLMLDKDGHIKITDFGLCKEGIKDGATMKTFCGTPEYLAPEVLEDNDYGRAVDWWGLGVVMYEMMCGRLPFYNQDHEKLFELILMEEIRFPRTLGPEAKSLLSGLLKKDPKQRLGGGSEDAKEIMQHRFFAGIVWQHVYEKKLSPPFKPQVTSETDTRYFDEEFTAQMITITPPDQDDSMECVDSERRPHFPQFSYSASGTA

| SMILES | pIC50 |
| --- | --- |
| N#Cc1nccc(N2CCN(Cc3ccc(-n4c(-c5cccnc5N)nc5ccc(-c6cccnc6C#N)nc54)cc3)CC2)n1 [Example 424, 4-(4-(4-(2-(2-Aminopyridin-3-yl)-5-(2-cyanopyridin-3-yl)-3H-imidazo[4,5-b]pyridin-3-yl)benzyl)piperazin-1-yl)pyrimidine-2-carbonitrile] | 7.22 to 7.82 |
| CC(C)Oc1ccc2nc(-c3cccnc3N)n(-c3ccc(CN4CCC(Nc5ccnc(C#N)n5)CC4)cc3)c2n1 [Example 425, 4-((1-(4-(2-(2-Aminopyridin-3-yl)-5-isopropoxy-3H-imidazo[4,5-b]pyridin-3-yl)benzyl)piperidin-4-yl)amino)pyrimidine-2-carbonitrile] | > 7.82 |
| N#Cc1nccc(NN2CCN(Cc3ccc(-n4c(-c5cccnc5N)nc5ccc(-c6ccccc6)nc54)cc3)CC2)n1 [Example 426, 4-((4-(4-(2-(2-Aminopyridin-3-yl)-5-phenyl-3H-imidazo[4,5-b]pyridin-3-yl)benzyl)piperazin-1-yl)amino)pyrimidine-2-carbonitrile] | > 7.82 |
| [2H]C([2H])([2H])Oc1ccc2nc(-c3cccnc3N)n(-c3ccc(CN4CCC(Nc5ccnc(C#N)n5)CC4)cc3)c2n1 [Example 427, 4-((1-(4-(2-(2-Aminopyridin-3-yl)-5-(methoxy-d3)-3H-imidazo[4,5-b]pyridin-3-yl)benzyl)piperidin-4-yl)amino)pyrimidine-2-carbonitrile] | > 7.82 |
| N#Cc1cccc(-c2ccc3nc(-c4cccnc4N)n(-c4ccc(CN5CCC(Nc6ccnc(C#N)n6)CC5)cc4)c3n2)n1 [Example 428, 4-((1-(4-(2-(2-Aminopyridin-3-yl)-5-(6-cyanopyridin-2-yl)-3H-imidazo[4,5-b]pyridin-3-yl)benzyl)piperidin-4-yl)amino)pyrimidine-2-carbonitrile] | 7.22 to 7.82 |
| N#Cc1cc(-c2ccc3nc(-c4cccnc4N)n(-c4ccc(CN5CCC(Nc6ccnc(C#N)n6)CC5)cc4)c3n2)ccn1 [Example 429, 4-((1-(4-(2-(2-Aminopyridin-3-yl)-5-(2-cyanopyridin-4-yl)-3H-imidazo[4,5-b]pyridin-3-yl)benzyl)piperidin-4-yl)amino)pyrimidine-2-carbonitrile] | > 7.82 |
| N#Cc1cncc(-c2ccc3nc(-c4cccnc4N)n(-c4ccc(CN5CCC(Nc6ccnc(C#N)n6)CC5)cc4)c3n2)c1 [Example 430, 4-((1-(4-(2-(2-Aminopyridin-3-yl)-5-(5-cyanopyridin-3-yl)-3H-imidazo[4,5-b]pyridin-3-yl)benzyl)piperidin-4-yl)amino)pyrimidine-2-carbonitrile] | > 7.82 |
| N#Cc1nccc(NC2CCN(Cc3ccc(-n4c(-c5cccnc5N)nc5ccc(-c6cccnc6)nc54)cc3)CC2)n1 [Example 431, 4-((1-(4-(2-(2-Aminopyridin-3-yl)-5-(pyridin-3-yl)-3H-imidazo[4,5-b]pyridin-3-yl)benzyl)piperidin-4-yl)amino)pyrimidine-2-carbonitrile] | > 7.82 |
| N#Cc1nccc(N2CCN(Cc3ccc(-n4c(-c5cccnc5N)nc5ccc(-c6cccnc6)nc54)cc3)CC2)n1 [Example 432] | > 7.82 |
| N#Cc1nccc(NC2CCN(Cc3ccc(-n4c(-c5cccnc5N)nc5ccc(-c6ccncc6)nc54)cc3)CC2)n1 [Example 433, 4-((1-(4-(2-(2-Aminopyridin-3-yl)-5-(pyridin-4-yl)-3H-imidazo[4,5-b]pyridin-3-yl)benzyl)piperidin-4-yl)amino)pyrimidine-2-carbonitrile] | > 7.82 |
| N#Cc1ncnc(NC2CC3(CCN(Cc4ccc(-n5c(-c6cccnc6N)nc6ccc(N7CCOCC7)nc65)cc4)CC3)C2)n1 [Example 434, 4-((7-(4-(2-(2-Aminopyridin-3-yl)-5-morpholino-3H-imidazo[4,5-b]pyridin-3-yl)benzyl)-7-azaspiro[3.5]nonan-2-yl)amino)-1,3,5-triazine-2-carbonitrile] | 7.22 to 7.82 |
| CSc1ccc2nc(-c3cccnc3N)n(-c3ccc(CN4CCC(Nc5ccnc(C#N)n5)CC4)cc3)c2n1 [Example 435, 4-((1-(4-(2-(2-Aminopyridin-3-yl)-5-(methylthio)-3H-imidazo[4,5-b]pyridin-3-yl)benzyl)piperidin-4-yl)amino)pyrimidine-2-carbonitrile] | > 7.82 |
| CS(=O)(=O)c1ccc2nc(-c3cccnc3N)n(-c3ccc(CN4CCC(Nc5ccnc(C#N)n5)CC4)cc3)c2n1 [Example 436, 4-((1-(4-(2-(2-Aminopyridin-3-yl)-5-(methylsulfonyl)-3H-imidazo[4,5-b]pyridin-3-yl)benzyl)piperidin-4-yl)amino)pyrimidine-2-carbonitrile] | 6.22 to 7.22 |
| COc1ccnc(-c2ccc3nc(-c4cccnc4N)n(-c4ccc(CN5CCC(Nc6ccnc(C#N)n6)CC5)cc4)c3n2)c1 [Example 437, 4-((1-(4-(2-(2-Aminopyridin-3-yl)-5-(4-methoxypyridin-2-yl)-3H-imidazo[4,5-b]pyridin-3-yl)benzyl)piperidin-4-yl)amino)pyrimidine-2-carbonitrile] | > 7.82 |
| Cn1cc(-c2ccc3nc(-c4cccnc4N)n(-c4ccc(CN5CCC(Nc6ccnc(C#N)n6)CC5)cc4)c3n2)nn1 [Example 438, 4-((1-(4-(2-(2-Aminopyridin-3-yl)-5-(1-methyl-1H-1,2,3-triazol-4-yl)-3H-imidazo[4,5-b]pyridin-3-yl)benzyl)piperidin-4-yl)amino)pyrimidine-2-carbonitrile] | > 7.82 |
| COc1cc(-c2ccc3nc(-c4cccnc4N)n(-c4ccc(CN5CCC(Nc6ccnc(C#N)n6)CC5)cc4)c3n2)ccc1F [Example 439, 4-((1-(4-(2-(2-Aminopyridin-3-yl)-5-(4-fluoro-3-methoxyphenyl)-3H-imidazo[4,5-h]pyridin-3-yl)benzyl)piperidin-4-yl)amino)pyrimidine-2-carbonitrile] | > 7.82 |
| CC(=O)Nc1cccc(-c2ccc3nc(-c4cccnc4N)n(-c4ccc(CN5CCC(Nc6ccnc(C#N)n6)CC5)cc4)c3n2)c1 [Example 440, N-(3-(2-(2-Aminopyridin-3-yl)-3-(4-((4-((2-cyanopyrimidin-4-yl)amino)piperidin-1-yl)methyl)phenyl)-3H-imidazo[4,5-b]pyridin-5-yl)phenyl)acetamide] | > 7.82 |
| [2H]C([2H])([2H])N(c1ccnc(C#N)n1)C1CCN(Cc2ccc(-n3c(-c4cccnc4N)nc4ccc(-c5ccc(F)cc5)nc43)cc2)CC1 [Example 441, 4-((1-(4-(2-(2-Aminopyridin-3-yl)-5-(4-fluorophenyl)-3H-imidazo[4,5-b]pyridin-3-yl)benzyl)piperidin-4-yl)(methyl-d3)amino)pyrimidine-2-carbonitrile] | > 7.82 |
| [2H]C([2H])([2H])N(c1ccnc(C#N)n1)C1CCN(C([2H])([2H])c2ccc(-n3c(-c4cccnc4N)nc4ccc(-c5ccc(F)cc5)nc43)cc2)CC1 [Example 442, 4-((1-((4-(2-(2-Aminopyridin-3-yl)-5-(4-fluorophenyl)-3H-imidazo[4,5-b]pyridin-3-yl)phenyl)methyl-d2)piperidin-4-yl)(methyl-d3)amino)pyrimidine-2-carbonitrile] | > 7.82 |
| N#Cc1nccc(NC2CN(Cc3ccc(-n4c(-c5cccnc5N)nc5ccc(-c6ccc(F)cc6)nc54)cc3)C2)n1 [Example 443, 4-((1-(4-(2-(2-Aminopyridin-3-yl)-5-(4-fluorophenyl)-3H-imidazo[4,5-b]pyridin-3-yl)benzyl)azetidin-3-yl)amino)pyrimidine-2-carbonitrile] | > 7.82 |
